Test results published in paper PMC6458995, “MAP4K4 Inhibition Promotes Survival of Human Stem Cell-Derived Cardiomyocytes and Reduces Infarct Size In Vivo” (Cell Stem Cell, 2019).

Legend:
Assay in all cases: Dundee kinase panel
Type in all cases: biochemical
Details in all cases: for remaining activity at 1 µM: read-out: residual activity
BRK = target: T1, BRK (Homo sapiens, UniProt Q13882)
T1 construct: lines 1-140) and Reaction Biology
Method: (§1) Compounds were screened at 1 μM. For key hits, pIC50 values were then determined by HTRF as above. […] Stability in mouse and human liver microsomes was determined by Cyprotex.

DYRK2 = target: T2, DYRK2 (Homo sapiens, UniProt Q92630)
T2 construct: lines 1-140) and Reaction Biology
T2 sequence (Q92630 1-601): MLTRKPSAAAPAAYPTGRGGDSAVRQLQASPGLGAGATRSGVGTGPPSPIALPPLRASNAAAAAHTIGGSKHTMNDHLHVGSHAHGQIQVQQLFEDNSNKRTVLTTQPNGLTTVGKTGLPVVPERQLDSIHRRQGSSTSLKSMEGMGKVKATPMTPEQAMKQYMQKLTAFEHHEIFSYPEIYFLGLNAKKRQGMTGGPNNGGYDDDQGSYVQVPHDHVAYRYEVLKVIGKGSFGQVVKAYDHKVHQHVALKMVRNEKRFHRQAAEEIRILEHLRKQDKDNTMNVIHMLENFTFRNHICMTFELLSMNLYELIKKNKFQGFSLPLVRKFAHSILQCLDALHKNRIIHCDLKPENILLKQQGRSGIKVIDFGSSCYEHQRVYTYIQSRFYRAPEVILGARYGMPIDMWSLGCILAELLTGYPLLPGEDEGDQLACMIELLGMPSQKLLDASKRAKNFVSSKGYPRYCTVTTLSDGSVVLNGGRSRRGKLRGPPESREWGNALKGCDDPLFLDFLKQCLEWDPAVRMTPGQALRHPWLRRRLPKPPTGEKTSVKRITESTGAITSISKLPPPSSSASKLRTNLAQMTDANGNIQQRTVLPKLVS
Method: as §1

HER4 = target: T3, HER4 (Homo sapiens, UniProt Q15303)
T3 construct: lines 1-140) and Reaction Biology
T3 sequence (Q15303 26-1308): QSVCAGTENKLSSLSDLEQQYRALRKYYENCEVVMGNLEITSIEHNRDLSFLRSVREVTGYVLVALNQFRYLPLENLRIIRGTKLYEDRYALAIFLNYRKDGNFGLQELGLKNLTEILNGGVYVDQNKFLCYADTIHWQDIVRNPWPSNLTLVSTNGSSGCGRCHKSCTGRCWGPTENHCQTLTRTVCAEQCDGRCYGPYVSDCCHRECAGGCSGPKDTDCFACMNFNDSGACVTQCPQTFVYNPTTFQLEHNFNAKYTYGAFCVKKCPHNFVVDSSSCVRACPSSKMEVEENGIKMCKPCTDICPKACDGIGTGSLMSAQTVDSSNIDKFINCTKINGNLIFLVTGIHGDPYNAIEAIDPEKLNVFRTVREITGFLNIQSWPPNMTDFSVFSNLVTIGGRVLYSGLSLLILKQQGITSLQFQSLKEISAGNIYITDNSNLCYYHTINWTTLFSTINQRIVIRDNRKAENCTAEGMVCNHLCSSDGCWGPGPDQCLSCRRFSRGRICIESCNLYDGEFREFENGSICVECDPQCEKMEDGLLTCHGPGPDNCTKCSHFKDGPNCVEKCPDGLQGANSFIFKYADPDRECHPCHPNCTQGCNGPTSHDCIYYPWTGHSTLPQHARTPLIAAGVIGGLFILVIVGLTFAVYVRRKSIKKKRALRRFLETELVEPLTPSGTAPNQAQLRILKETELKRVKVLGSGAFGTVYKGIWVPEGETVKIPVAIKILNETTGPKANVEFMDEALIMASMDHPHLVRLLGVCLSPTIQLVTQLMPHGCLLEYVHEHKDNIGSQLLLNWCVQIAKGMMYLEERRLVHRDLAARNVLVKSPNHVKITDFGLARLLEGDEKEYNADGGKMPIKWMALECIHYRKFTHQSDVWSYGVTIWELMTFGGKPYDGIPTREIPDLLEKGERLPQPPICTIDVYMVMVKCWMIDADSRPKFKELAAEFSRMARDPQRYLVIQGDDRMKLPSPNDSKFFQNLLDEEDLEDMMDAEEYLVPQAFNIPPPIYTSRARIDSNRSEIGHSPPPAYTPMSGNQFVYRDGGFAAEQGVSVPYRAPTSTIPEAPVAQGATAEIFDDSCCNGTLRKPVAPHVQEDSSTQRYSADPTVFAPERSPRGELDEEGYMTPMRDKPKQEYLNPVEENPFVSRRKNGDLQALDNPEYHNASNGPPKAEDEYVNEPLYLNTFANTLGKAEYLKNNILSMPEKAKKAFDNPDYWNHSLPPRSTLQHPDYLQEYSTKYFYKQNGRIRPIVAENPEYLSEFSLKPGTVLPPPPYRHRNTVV
Method: as §1

MST2 = target: T4, MST2 (Homo sapiens, UniProt Q13188)
T4 construct: lines 1-140) and Reaction Biology
T4 sequence (Q13188 1-491): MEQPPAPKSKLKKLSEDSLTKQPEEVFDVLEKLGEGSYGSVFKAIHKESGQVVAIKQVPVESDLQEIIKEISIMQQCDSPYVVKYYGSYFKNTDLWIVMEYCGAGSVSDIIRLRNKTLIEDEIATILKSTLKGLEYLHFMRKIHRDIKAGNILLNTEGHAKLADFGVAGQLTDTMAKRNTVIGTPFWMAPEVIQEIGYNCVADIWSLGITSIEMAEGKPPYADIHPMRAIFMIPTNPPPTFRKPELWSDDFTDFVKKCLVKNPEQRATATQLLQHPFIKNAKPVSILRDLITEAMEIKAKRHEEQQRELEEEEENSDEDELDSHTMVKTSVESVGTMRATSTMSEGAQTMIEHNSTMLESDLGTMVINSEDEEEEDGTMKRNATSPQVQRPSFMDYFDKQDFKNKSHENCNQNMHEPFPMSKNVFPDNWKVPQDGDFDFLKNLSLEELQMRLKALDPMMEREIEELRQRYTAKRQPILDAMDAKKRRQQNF
Method: as §1

TTBK1 = target: T5, TTBK1 (Homo sapiens, UniProt Q5TCY1)
T5 construct: lines 1-140) and Reaction Biology
T5 sequence (Q5TCY1 whole entry): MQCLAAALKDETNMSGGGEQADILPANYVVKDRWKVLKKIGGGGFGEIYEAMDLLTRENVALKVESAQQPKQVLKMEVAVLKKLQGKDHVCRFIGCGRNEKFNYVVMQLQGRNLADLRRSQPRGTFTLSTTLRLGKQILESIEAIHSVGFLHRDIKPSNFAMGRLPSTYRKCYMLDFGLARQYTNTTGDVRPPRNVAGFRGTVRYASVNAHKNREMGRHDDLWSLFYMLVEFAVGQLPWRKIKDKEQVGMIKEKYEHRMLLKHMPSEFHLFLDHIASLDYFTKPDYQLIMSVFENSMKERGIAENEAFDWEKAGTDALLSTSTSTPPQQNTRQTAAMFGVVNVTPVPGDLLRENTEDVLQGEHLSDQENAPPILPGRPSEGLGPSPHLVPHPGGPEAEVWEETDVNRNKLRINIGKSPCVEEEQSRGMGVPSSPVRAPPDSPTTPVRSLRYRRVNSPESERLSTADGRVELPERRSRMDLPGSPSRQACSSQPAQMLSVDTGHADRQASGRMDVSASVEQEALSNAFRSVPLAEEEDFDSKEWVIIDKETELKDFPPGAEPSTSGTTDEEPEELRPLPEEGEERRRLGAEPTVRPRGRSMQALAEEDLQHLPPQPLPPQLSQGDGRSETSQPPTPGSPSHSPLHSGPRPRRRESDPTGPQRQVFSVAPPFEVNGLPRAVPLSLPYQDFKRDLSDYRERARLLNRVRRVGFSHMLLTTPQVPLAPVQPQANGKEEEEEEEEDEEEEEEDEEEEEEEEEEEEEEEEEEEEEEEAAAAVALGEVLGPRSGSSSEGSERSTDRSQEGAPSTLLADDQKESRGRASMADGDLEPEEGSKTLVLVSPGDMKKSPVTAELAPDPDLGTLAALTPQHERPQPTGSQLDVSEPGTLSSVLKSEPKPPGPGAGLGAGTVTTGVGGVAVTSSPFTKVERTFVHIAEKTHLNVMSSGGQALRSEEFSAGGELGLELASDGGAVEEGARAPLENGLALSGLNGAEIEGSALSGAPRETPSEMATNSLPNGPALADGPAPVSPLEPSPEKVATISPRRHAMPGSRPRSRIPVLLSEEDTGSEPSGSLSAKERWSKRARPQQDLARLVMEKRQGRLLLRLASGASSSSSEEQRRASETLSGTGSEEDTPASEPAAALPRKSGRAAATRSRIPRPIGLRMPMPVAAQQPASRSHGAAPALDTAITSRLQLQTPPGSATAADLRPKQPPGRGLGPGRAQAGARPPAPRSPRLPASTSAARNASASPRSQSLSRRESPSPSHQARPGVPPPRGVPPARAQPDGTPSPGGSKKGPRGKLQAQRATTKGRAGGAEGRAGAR
Method: as §1

ULK1 = target: T6, ULK1 (Homo sapiens, UniProt O75385)
T6 construct: lines 1-140) and Reaction Biology
T6 sequence (O75385 1-1050): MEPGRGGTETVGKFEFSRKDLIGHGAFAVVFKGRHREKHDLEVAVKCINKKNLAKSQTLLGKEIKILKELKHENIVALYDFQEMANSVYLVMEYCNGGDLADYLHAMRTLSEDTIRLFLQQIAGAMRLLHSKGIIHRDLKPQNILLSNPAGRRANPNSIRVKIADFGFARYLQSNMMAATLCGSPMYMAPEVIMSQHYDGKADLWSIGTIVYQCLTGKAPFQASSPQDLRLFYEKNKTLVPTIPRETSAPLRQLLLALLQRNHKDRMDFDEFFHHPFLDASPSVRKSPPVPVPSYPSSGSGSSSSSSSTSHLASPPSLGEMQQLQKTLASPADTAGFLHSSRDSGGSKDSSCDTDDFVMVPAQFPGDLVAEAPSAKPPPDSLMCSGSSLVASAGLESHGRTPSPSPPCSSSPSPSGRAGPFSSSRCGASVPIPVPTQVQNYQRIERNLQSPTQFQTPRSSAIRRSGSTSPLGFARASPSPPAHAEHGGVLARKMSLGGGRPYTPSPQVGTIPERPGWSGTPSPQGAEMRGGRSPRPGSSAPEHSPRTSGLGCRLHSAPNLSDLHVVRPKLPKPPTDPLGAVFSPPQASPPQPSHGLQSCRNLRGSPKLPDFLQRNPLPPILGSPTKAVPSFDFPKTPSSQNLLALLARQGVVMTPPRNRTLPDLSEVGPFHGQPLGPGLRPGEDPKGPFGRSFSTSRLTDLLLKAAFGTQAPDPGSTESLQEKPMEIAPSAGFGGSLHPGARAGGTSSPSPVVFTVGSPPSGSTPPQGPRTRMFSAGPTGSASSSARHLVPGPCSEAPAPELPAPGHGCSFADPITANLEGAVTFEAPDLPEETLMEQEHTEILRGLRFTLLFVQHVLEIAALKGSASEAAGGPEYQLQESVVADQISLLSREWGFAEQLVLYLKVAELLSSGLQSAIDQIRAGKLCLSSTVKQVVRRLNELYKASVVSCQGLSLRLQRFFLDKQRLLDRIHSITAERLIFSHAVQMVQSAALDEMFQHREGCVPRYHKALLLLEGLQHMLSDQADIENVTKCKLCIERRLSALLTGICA
Method: as §1

VEGFR = target: T7, VEGFR (Homo sapiens, UniProt P17948)
T7 construct: lines 1-140) and Reaction Biology
T7 sequence (P17948 784-1338 limits assumed): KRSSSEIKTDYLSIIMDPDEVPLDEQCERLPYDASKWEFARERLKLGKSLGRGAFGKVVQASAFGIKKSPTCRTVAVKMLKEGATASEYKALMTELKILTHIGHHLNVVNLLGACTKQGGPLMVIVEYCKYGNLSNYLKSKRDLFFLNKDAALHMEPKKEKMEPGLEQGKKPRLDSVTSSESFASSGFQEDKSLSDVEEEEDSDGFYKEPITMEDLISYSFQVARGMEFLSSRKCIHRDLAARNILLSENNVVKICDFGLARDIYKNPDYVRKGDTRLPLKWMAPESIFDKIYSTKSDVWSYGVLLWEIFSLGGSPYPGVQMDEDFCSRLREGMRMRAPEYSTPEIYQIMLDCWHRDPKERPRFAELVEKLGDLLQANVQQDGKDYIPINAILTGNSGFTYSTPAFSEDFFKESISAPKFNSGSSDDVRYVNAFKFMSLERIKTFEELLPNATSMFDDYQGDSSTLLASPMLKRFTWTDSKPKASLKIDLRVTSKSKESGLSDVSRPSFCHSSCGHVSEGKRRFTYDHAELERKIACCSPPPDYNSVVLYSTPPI
Method: as §1

T1 sequence (Q13882 whole entry): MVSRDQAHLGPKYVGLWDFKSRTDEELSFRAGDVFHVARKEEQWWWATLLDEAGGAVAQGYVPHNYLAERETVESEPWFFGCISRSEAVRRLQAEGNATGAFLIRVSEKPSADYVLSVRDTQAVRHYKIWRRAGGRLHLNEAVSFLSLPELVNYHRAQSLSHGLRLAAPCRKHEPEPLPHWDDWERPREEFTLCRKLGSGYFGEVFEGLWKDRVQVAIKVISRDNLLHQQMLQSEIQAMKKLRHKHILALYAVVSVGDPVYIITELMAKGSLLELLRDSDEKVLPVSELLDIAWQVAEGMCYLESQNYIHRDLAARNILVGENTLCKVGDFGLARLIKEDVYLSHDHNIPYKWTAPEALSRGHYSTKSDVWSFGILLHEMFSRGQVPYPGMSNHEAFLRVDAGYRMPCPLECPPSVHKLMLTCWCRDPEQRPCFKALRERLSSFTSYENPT

`COCCOc1ccc(-c2cn(-c3ccccc3)c3nc[nH]c(=O)c23)cc1` [DMX-5804, 5-[4-(2-methoxy-ethoxy)-phenyl]-7-phenyl-3,7-dihydro-pyrrolo[2,3-d]pyrimidin-4-one] showed a remaining activity at 1 µM (BRK) of 88%, a remaining activity at 1 µM (DYRK2) of 115% and a remaining activity at 1 µM (HER4) of 106%. For the same compound, the remaining activity at 1 µM (MST2) was 46%, the remaining activity at 1 µM (TTBK1) was 113% and the remaining activity at 1 µM (ULK1) was 82%. The remaining activity at 1 µM (VEGFR) was 27%.
`Oc1ncnc2c1c(-c1ccccc1)cn2-c1ccccc1` [F1386-0303, 5,7-diphenyl-7H-pyrrolo[2,3-d]pyrimidin-4-ol] showed a remaining activity at 1 µM (BRK) of 108%, a remaining activity at 1 µM (DYRK2) of 93% and a remaining activity at 1 µM (HER4) of 82%. For the same compound, the remaining activity at 1 µM (MST2) was 63%, the remaining activity at 1 µM (TTBK1) was 102% and the remaining activity at 1 µM (ULK1) was 84%. The remaining activity at 1 µM (VEGFR) was 73%.
For `Nc1ncc(C(=O)NC2CN(C(=O)C3CC3)C2)c2ccc(-c3cccc(F)c3)nc12` [GNE-495], the residual activity (BRK; 1 μM) was 94%, the residual activity (DYRK2; 1 μM) was 55% and the residual activity (HER4; 1 μM) was 98%. It also gave a residual activity (MST2; 1 μM) of 76%, a residual activity (TTBK1; 1 μM) of 97% and a residual activity (ULK1; 1 μM) of 110%. For the same compound, the residual activity (VEGFR; 1 μM) was 92%.
With `O=C1Nc2ccc(I)cc2/C1=C/c1cc(Br)c(O)c(Br)c1` [GW5074] the remaining activity at 1 µM (BRK) was 77%, the remaining activity at 1 µM (DYRK2) was 13% and the remaining activity at 1 µM (HER4) was 68%. It also gave a remaining activity at 1 µM (MST2) of 93%, a remaining activity at 1 µM (TTBK1) of 62% and a remaining activity at 1 µM (ULK1) of 97%. It also gave a remaining activity at 1 µM (VEGFR) of 29%.
`O=C1Cc2c([nH]c3ccc(Br)cc23)-c2ccccc2N1` [Kenpaullone] gave a remaining activity at 1 µM (BRK) of 97%, a remaining activity at 1 µM (DYRK2) of 91% and a remaining activity at 1 µM (HER4) of 85%. The remaining activity at 1 µM (MST2) was 63%, the remaining activity at 1 µM (TTBK1) was 88% and the remaining activity at 1 µM (ULK1) was 107%. The remaining activity at 1 µM (VEGFR) was 30%.
